Test systems include 786-0; COLO 205; U-251; OVCAR-8; SK-OV-3; RXF 393; SK-MEL-28; IGROV-1; M14; NCI-H460; OVCAR-4; NCI-H522; SNB-75; HCT-116; EKVX; RPMI-8226; CCRF-CEM; HL-60.
Common to all, as to test: NCI tumour cell line growth inhibition, 48 h

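Compound exposure: 48 hours, 5 concentrations, 96-well plates. The concentration for 50% growth inhibition is given as GI50.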 Activity calls are given as the source filed them. Rule as the data show it: active = GI50 up to about 1.1 µM and inactive = higher. Bounds are passed on as bounds.

Consider 11 molecules from ChEMBL document CHEMBL1201862, “PubChem BioAssay data set” (2004).

`COc1ccc(CCc2ccccc2CC(=O)O)cc1`: the GI50 in the experiment with 786-0, in the experiment with COLO 205, in the experiment on U-251, in the experiment with OVCAR-8, with SK-OV-3 and in the experiment with RXF 393 was > 100 µM (inactive) throughout. Besides, the GI50 in the experiment on SK-MEL-28, in the experiment with IGROV-1, in the experiment on M14, in the experiment with NCI-H460, with OVCAR-4 and in the experiment on NCI-H522 was > 100 µM (inactive) throughout. For the same molecule, the GI50 in the experiment with SNB-75, in the experiment with HCT-116, in the experiment with EKVX, with RPMI-8226, with CCRF-CEM and in the experiment with HL-60 was > 100 µM (inactive) throughout.

Consider `O=C(Cc1ccccc1)NS(=O)(=O)c1ccccc1`, for which the GI50 in the experiment on 786-0, with COLO 205, in the experiment with U-251, with OVCAR-8, in the experiment on SK-OV-3 and in the experiment with RXF 393 was > 100 µM (inactive) in each case. The GI50 in the experiment on SK-MEL-28, in the experiment with IGROV-1, in the experiment on M14, in the experiment on NCI-H460, with OVCAR-4 and in the experiment with NCI-H522 was > 100 µM (inactive) each time. The GI50 with SNB-75, with HCT-116, in the experiment with EKVX, in the experiment with RPMI-8226, in the experiment on CCRF-CEM and in the experiment on HL-60 was > 100 µM (inactive) throughout.

Consider `CC[C@@H]1OC2(C)CC(S(=O)(=O)c3ccccc3)CC1O2` (stereo not given in full), for which the GI50 with 786-0, in the experiment on COLO 205, in the experiment with U-251, in the experiment with OVCAR-8, with SK-OV-3 and in the experiment on RXF 393 was > 100 µM (inactive) throughout. The GI50 with SK-MEL-28, with IGROV-1, in the experiment with M14, in the experiment with NCI-H460, with OVCAR-4 and with NCI-H522 was > 100 µM (inactive) in each case. The GI50 with SNB-75, in the experiment with HCT-116, in the experiment with EKVX, in the experiment on RPMI-8226, in the experiment with CCRF-CEM and with HL-60 was > 100 µM (inactive) throughout.

For the molecule `CC(=O)C1CC2(c3ccccc3)C(=O)c3ccccc3N2O1` (stereo not given), the GI50 in the experiment on 786-0, with COLO 205, in the experiment with U-251, in the experiment with OVCAR-8, in the experiment with SK-OV-3 and with RXF 393 was > 100 µM (inactive) each time. In addition, the GI50 in the experiment on SK-MEL-28, in the experiment with IGROV-1, in the experiment on M14, in the experiment on OVCAR-4, in the experiment on NCI-H522 and in the experiment with SNB-75 was > 100 µM (inactive) each time. The GI50 in the experiment with HCT-116, in the experiment on EKVX, in the experiment on RPMI-8226, in the experiment on CCRF-CEM and in the experiment on HL-60 was > 100 µM (inactive) throughout.

For `COCC(C)(C)/N=C/N1Cc2cc3ccccc3nc2C1`, the GI50 with 786-0, in the experiment on COLO 205, in the experiment with U-251, in the experiment on OVCAR-8, with SK-OV-3 and with RXF 393 was > 100 µM (inactive) each time. Besides, the GI50 in the experiment with SK-MEL-28, in the experiment on IGROV-1, in the experiment on M14, with NCI-H460, in the experiment on OVCAR-4 and with NCI-H522 was > 100 µM (inactive) in each case. Besides, the GI50 in the experiment on SNB-75, with HCT-116, in the experiment on EKVX, with RPMI-8226, with CCRF-CEM and with HL-60 was > 100 µM (inactive) throughout.

As to `COC1=C(C(=O)OC(C)(C)C)[C@]2(C)C(C(=O)OC(C)(C)C)C(OC)=C(C(=O)OC(C)(C)C)[C@]2(C)C1C(=O)OC(C)(C)C` (stereo not given in full), the GI50 with 786-0 was > 100 µM (inactive); in the experiment with COLO 205, 60.4 µM (inactive); in the experiment on U-251, > 100 µM (inactive); with OVCAR-8, > 100 µM (inactive); with SK-OV-3 it was > 100 µM (inactive); in the experiment with RXF 393, > 100 µM (inactive). Further, the GI50 in the experiment with IGROV-1 is > 100 µM (inactive); in the experiment on M14, 46.9 µM (inactive); with NCI-H460, 78.2 µM (inactive); with OVCAR-4, 97.7 µM (inactive); with NCI-H522, 43.8 µM (inactive); with SNB-75 it was > 100 µM (inactive). Further, the GI50 with HCT-116 is 96.4 µM (inactive); in the experiment on EKVX it was > 100 µM (inactive); in the experiment with RPMI-8226, 31.3 µM (inactive); with CCRF-CEM, 73.8 µM (inactive); in the experiment with HL-60, 24.9 µM (inactive).

On to `O=C1/C(=C/c2ccccc2)CN(C(=O)Oc2ccccc2)C/C1=C\c1ccccc1`, for which the GI50 in the experiment on 786-0 was 10.5 µM (inactive); in the experiment with COLO 205, > 100 µM (inactive); in the experiment on U-251 it was 18.7 µM (inactive); in the experiment with OVCAR-8, 28.2 µM (inactive); in the experiment with RXF 393, 11.1 µM (inactive); with SK-MEL-28 it was > 100 µM (inactive). The GI50 was 21.6 µM (inactive) in the experiment with IGROV-1; 21.8 µM (inactive) in the experiment on M14; 52.1 µM (inactive) in the experiment with NCI-H460; 96.2 µM (inactive) in the experiment on OVCAR-4; 23.2 µM (inactive) in the experiment with NCI-H522; 4.91 µM (inactive) with SNB-75. In addition, the GI50 with HCT-116 was 6.81 µM (inactive); in the experiment with EKVX it was 62.2 µM (inactive); with RPMI-8226 it was 0.221 µM (active); in the experiment on CCRF-CEM, 6.44 µM (inactive); in the experiment on HL-60, 1.7 µM (inactive).

In the case of `CN(C)c1ccc(/C=C(/NC(=O)c2ccccc2)c2nc3cc(Cl)ccc3[nH]2)cc1`, the GI50 in the experiment on 786-0 was 27.8 µM (inactive); in the experiment on COLO 205 it was 20.7 µM (inactive); in the experiment with U-251 it was 35.5 µM (inactive); in the experiment with OVCAR-8, 35.3 µM (inactive); in the experiment on SK-OV-3, 52.6 µM (inactive); with RXF 393 it was 30.2 µM (inactive). Also, the GI50 in the experiment on SK-MEL-28 is 83.9 µM (inactive); in the experiment on IGROV-1, > 100 µM (inactive); in the experiment with M14 it was 32.7 µM (inactive); in the experiment on NCI-H460, 33.6 µM (inactive); in the experiment on OVCAR-4, 18.6 µM (inactive); in the experiment on NCI-H522, 22 µM (inactive). Besides, the GI50 in the experiment on SNB-75 is 17.9 µM (inactive); in the experiment with HCT-116 it was 37.8 µM (inactive); in the experiment with EKVX, 87.3 µM (inactive); in the experiment with RPMI-8226, 19.1 µM (inactive); in the experiment with CCRF-CEM it was 22.4 µM (inactive); with HL-60, 16 µM (inactive).

Turning to `Nc1ccccc1[S+]([O-])c1ccccc1` (stereo not given), the GI50 in the experiment on 786-0, in the experiment with COLO 205, in the experiment on U-251, with OVCAR-8, in the experiment on SK-OV-3 and in the experiment on RXF 393 was > 100 µM (inactive) in each case. For the same molecule, the GI50 in the experiment on SK-MEL-28, in the experiment on IGROV-1, with M14, in the experiment on NCI-H460, in the experiment on OVCAR-4 and in the experiment on NCI-H522 was > 100 µM (inactive) each time. Also, the GI50 in the experiment on SNB-75, in the experiment on HCT-116, in the experiment with EKVX, in the experiment with RPMI-8226, with CCRF-CEM and in the experiment on HL-60 was > 100 µM (inactive) throughout.

Take `COC(=O)[C@@]12OC[C@]34C([C@@H](O)C1O)[C@@]1(C)CC(=O)C(O)=C(C)C1C[C@H]3OC(=O)[C@H](OC(=O)/C=C(/c1ccccc1)C(F)(F)F)[C@H]42` (stereo not given in full): the GI50 in the experiment on 786-0 is 7.93 µM (inactive); in the experiment on COLO 205, 6.67 µM (inactive); in the experiment on U-251 it was 4.41 µM (inactive); in the experiment on OVCAR-8, 10.5 µM (inactive); in the experiment on SK-OV-3 it was 7.29 µM (inactive); in the experiment with RXF 393, 6.05 µM (inactive). In addition, the GI50 in the experiment on SK-MEL-28 is 4.72 µM (inactive); in the experiment with IGROV-1 it was 2.16 µM (inactive); in the experiment with M14, 3.54 µM (inactive); in the experiment on NCI-H460 it was 1.03 µM (active); in the experiment with OVCAR-4, 6.31 µM (inactive); in the experiment on NCI-H522, 2.42 µM (inactive). Further, the GI50 with SNB-75 was 7.8 µM (inactive); in the experiment on HCT-116, 2.43 µM (inactive); in the experiment with EKVX it was 12 µM (inactive); in the experiment with RPMI-8226, 1.56 µM (inactive); in the experiment on CCRF-CEM, 3.88 µM (inactive); in the experiment with HL-60, 0.363 µM (active).

Turning to `CCC1(O)C(=O)OCc2c1cc1n(c2=O)Cc2cc3ccc(CO)cc3nc2-1` (stereo not given), the GI50 in the experiment with 786-0 was 1.99 µM (inactive); in the experiment on COLO 205 it was 14.2 µM (inactive); with U-251, 0.705 µM (active); with OVCAR-8, 2.62 µM (inactive); in the experiment on SK-OV-3 it was 2.26 µM (inactive); in the experiment on RXF 393, 7.26 µM (inactive). Moreover, the GI50 in the experiment on SK-MEL-28 is > 78.5 µM (inactive); in the experiment with IGROV-1 it was 12.2 µM (inactive); in the experiment with M14, 3.59 µM (inactive); in the experiment on NCI-H460, 1.09 µM (active); with OVCAR-4, 23.8 µM (inactive); in the experiment on NCI-H522, 1.64 µM (inactive). Further, the GI50 in the experiment on SNB-75 is 2.18 µM (inactive); in the experiment with HCT-116 it was 4.85 µM (inactive); in the experiment on EKVX it was 16.8 µM (inactive); in the experiment with RPMI-8226, 7.08 µM (inactive); in the experiment on CCRF-CEM, 0.186 µM (active); in the experiment with HL-60, 2.57 µM (inactive).
